Source: US12624025B2, “Inhibitors of SARM1” (DISARM THERAPEUTICS, INC., priority 2019, dated 2026)
Like-named read-outs stand apart in the source and are kept apart here.

Target: T1, SARM1 SAM-TIR (Homo sapiens, UniProt Q6SZW1)
T1 construct: a fragment of the SARM1 molecule encompassing the SAM and TIR domains; tandem Strep-tag II (WSHPQFEK twice, with Gly/Ser linkers); made in house; host or cells: NRK1-HEK293T cells (transient transfection; crude lysate supernatant used, not purified)
T1 sequence (Q6SZW1 409-724 limits assumed): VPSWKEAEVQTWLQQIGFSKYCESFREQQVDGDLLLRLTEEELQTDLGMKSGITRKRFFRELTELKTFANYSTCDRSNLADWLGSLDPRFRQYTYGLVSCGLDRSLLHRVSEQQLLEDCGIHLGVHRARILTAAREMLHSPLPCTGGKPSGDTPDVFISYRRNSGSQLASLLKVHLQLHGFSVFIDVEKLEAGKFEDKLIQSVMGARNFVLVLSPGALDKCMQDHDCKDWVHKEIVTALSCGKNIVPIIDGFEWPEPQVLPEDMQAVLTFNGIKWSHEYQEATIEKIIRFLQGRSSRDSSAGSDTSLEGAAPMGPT
Experiment: SAM-TIR SARM1 IC50 assay (NADase activity, NAD+ cleavage, RapidFire MS readout)
Assay type: biochemical
Method: This Example describes an assay of SAM-TIR NADase activity and use of this assay to measure the efficacy of compounds of Formula I to block SARM1 mediated NAD+ cleavage. This assay is optimized in such a way as to characterize the efficacy of the compounds in Formula I to inhibit SARM1 activity and to calculate an IC50 value for each compound. This assay makes use of a fragment of the SARM1 molecule encompassing the SAM and TIR domains.
NRK1-HEK293T cells were seeded onto 150 cm^2 plates at 20×10^6 cells per plate. The next day, the cells were transfected with 15 μg FCIV-SST (SAM-TIR expression plasmid, SEQ ID NO: 1) using X-TREMEGENE™ 9 DNA Transfection Reagent (Roche product #06365787001).
The cultures were supplemented with 1 mM NR at time of transfection to minimize toxicity from SAM-TIR overexpression. Forty-eight hours after transfection, cells were harvested, pelleted by centrifugation at 1,000 rpm (Sorvall ST 16R centrifuge, Thermo Fisher), and washed once with cold PBS (0.01 M phosphate buffered saline NaCl 0.138 M; KCl 0.0027 M; pH 7.4). The cells were resuspended in PBS with protease inhibitors (cOmplete™ protease inhibitor cocktail, Roche product #11873580001) and cell lysates were prepared by sonication (Branson Sonifer 450, output=3, 20 episodes of stroke). The lysates were centrifuged (12,000×g for 10 min at 4° C.) to remove cell debris and the supernatants (containing SARM1 SAM-TIR protein) were stored at −80° C. for later use in the in vitro SARM1 SAM-TIR NADase assay (see below). Protein concentration was determined by the Bicinchoninic (BCA) method and used to normalize lysate concentrations.
The enzymatic assay was performed in a 384-well polypropylene plate in Dulbecco's PBS buffer in a final assay volume of 20 μL. SAM-TIR lysate with a final concentration of 5 μg/mL was pre-incubated with the respective compound at 1% DMSO final assay concentration over 2 h at room temperature. The reaction was initiated by addition of 5 μM final assay concentration of NAD+ as substrate. After a 2 hr room temperature incubation, the reaction was terminated with 40 μL of stop solution of 7.5% trichloroactetic acid in acetonitrile. The NAD+ and ADPR concentrations were analyzed by a RapidFire High Throughput Mass Spectrometry System (Agilent Technologies, Santa Clara, CA) using an API4000 triple quadrupole mass spectrometer (AB Sciex Framingham, Mass.).

[1] = SAM-TIR lysate 5 μg/mL, 2 h pre-incubation with compound, 5 μM NAD+, 2 hr room temperature, read-out: SARM1 IC50

| IC50 [1] [nM] | Compound | IC50 [nM] |
| --- | --- | --- |
| < 1000 | C[C@H]1CNCC[C@H]1n1sc(Nc2c(Cl)ccc3ncccc23)c(C#N)c1=O [Example 43] |  |
| < 1000 | COc1cccc(OC)c1Nc1sn([C@@H]2CCNC2)c(=O)c1C(=O)N1CCOCC1 [Example 46] |  |
| > 5000 | CN(c1ccccc1C(F)(F)F)c1sn([C@@H]2CNCC23CC3)c(=O)c1C#N [Example 49] |  |
| < 1000 | N#Cc1c(Nc2ccccc2C(F)(F)F)sn(-c2ccc3c(c2)OCCO3)c1=O [Example 52] |  |
| < 1000 | COCCN(C)C(=O)c1c(Nc2ccccc2C(F)(F)F)sn(-c2ccccc2)c1=O [Example 35] |  |
| < 1000 | CN1CC[C@@H](n2sc(Nc3c(Cl)ccc4ncccc34)c(C#N)c2=O)C1 [Example 33] |  |
| < 1000 | CN1C[C@H](n2sc(Nc3c(Cl)ccc4ncccc34)c(C#N)c2=O)C2(CC2)C1 [Example 36] |  |
| < 1000 | CS(=O)(=O)N1CC2CCC1C2n1sc(Nc2c(Cl)ccc3ncccc23)c(C#N)c1=O (centres unmarked) [Example 42] |  |
| < 1000 | N#Cc1c(Nc2c(Cl)ccc3ncccc23)sn(C2C3CCC2CNC3)c1=O (centres unmarked) [Example 37] |  |
| < 1000 | C[C@@H]1CNC[C@H]1n1sc(Nc2c(Cl)ccc3ncccc23)c(C#N)c1=O [Example 44] |  |
| < 1000 | N#Cc1c(Nc2c(Cl)cccc2Cl)sn(-c2ccc(-n3cccn3)cc2)c1=O [Example 50] |  |
| < 1000 | N#Cc1c(Nc2ccccc2C(F)(F)F)sn(-c2ccc3cn[nH]c3c2)c1=O [Example 53] |  |
| < 1000 | N#Cc1c(Nc2ccccc2C(F)(F)F)sn(-c2ccc(-n3cccn3)cc2)c1=O [Example 51] |  |
| < 1000 | CS(=O)(=O)N1CC2CCC(C1)C2n1sc(Nc2c(Cl)ccc3ncccc23)c(C#N)c1=O (centres unmarked) [Example 34] |  |
| < 1000 | O=C(c1c(Nc2ccccc2C(F)(F)F)sn(-c2ccccc2)c1=O)N1CCOCC1 [Example 39] |  |
| 1000 to 5000 | Cc1cnn(C)c1-n1sc(Nc2c(Cl)ccc3ncccc23)c(C#N)c1=O [Example 47] |  |
| > 5000 | N#Cc1c(Nc2c(Cl)ccc3ncccc23)sn([C@H]2CCNC2)c1=O [Example 48] |  |
| < 1000 | O=C(c1c(Nc2c(Cl)cccc2Cl)sn(-c2ccccc2)c1=O)N1CCOCC1 [Example 38] |  |
| < 1000 | CN1C[C@@H](n2sc(Nc3c(Cl)ccc4ncccc34)c(C#N)c2=O)C2(CC2)C1 [Example 41] |  |

The next lines start with the compound.

| Compound | IC50 [1] [nM] | IC50 [nM] |
| --- | --- | --- |
| CN1CCC(n2sc(Nc3c(Cl)ccc4ncccc34)c(C#N)c2=O)CC1 [Example 1] | < 1000 |  |
| N#Cc1c(Nc2c(Cl)ccc3ncccc23)sn(-c2ccn[nH]2)c1=O [Example 13] | < 1000 |  |
| CS(=O)(=O)N1CC[C@H](n2sc(Nc3ccccc3C(F)(F)F)c(C#N)c2=O)C1 [Example 7] | < 1000 |  |
| N#Cc1c(Nc2ccccc2C(F)(F)F)sn(C2CNCC23CC3)c1=O (centres unmarked) [Example 24] | < 1000 |  |
| N#Cc1c(Nc2ccccc2C(F)(F)F)sn(C2CCOCC2)c1=O [Example 31] | < 1000 |  |
| CC(=O)N1CC[C@H](n2sc(Nc3ccccc3C(F)(F)F)c(C#N)c2=O)C1 [Example 23] | < 1000 |  |
| N#Cc1c(Nc2ccccc2C(F)(F)F)sn([C@H]2CCN(C(N)=O)C2)c1=O [Example 9] | < 1000 |  |
| N#Cc1c(Nc2c(Cl)ccc3ncccc23)sn(C2CCNCC2)c1=O [Example 16] | < 1000 |  |
| CS(=O)(=O)N1C2CCC1C(n1sc(Nc3c(Cl)ccc4ncccc34)c(C#N)c1=O)C2 (centres unmarked) [Example 26] |  | < 1000 |
| CC(=O)N1CCC(n2sc(Nc3ccccc3C(F)(F)F)c(C#N)c2=O)CC1 [Example 2] | < 1000 |  |
| N#Cc1c(Nc2ccccc2C(F)(F)F)sn(-c2ccc3[nH]ncc3c2)c1=O [Example 11] | < 1000 |  |
| N#Cc1c(Nc2ccccc2C(F)(F)F)sn(-c2cccc(C(N)=O)c2)c1=O [Example 6] | < 1000 |  |
| C[C@@H]1CN(S(C)(=O)=O)C[C@H]1n1sc(Nc2c(Cl)ccc3ncccc23)c(C#N)c1=O [Example 28] | < 1000 |  |
| N#Cc1c(Nc2ccccc2C(F)(F)F)sn([C@@H]2CCN(C(N)=O)C2)c1=O [Example 10] | < 1000 |  |
| N#Cc1c(Nc2cccc3ncccc23)sn(-c2ccc3c(c2)OCCO3)c1=O [Example 25] | < 1000 |  |
| CC(=O)N1CC[C@@H](n2sc(Nc3ccccc3C(F)(F)F)c(C#N)c2=O)C1 [Example 15] | < 1000 |  |

| Compound | IC50 [1] [nM] | IC50 [nM] |
| --- | --- | --- |
| CS(=O)(=O)N1CC[C@@H](n2sc(Nc3ccccc3C(F)(F)F)c(C#N)c2=O)C1 [Example 12] | < 1000 |  |
| N#Cc1c(Nc2c(Cl)ccc3ncccc23)sn([C@@H]2CCNC2)c1=O [Example 32] | < 1000 |  |
| C[C@@H]1CNC[C@@H]1n1sc(Nc2ccccc2C(F)(F)F)c(C#N)c1=O [Example 3] | < 1000 |  |
| N#Cc1c(Nc2ccccc2C(F)(F)F)sn(C2CCN(C(N)=O)CC2)c1=O [Example 14] | < 1000 |  |
| N#Cc1c(Nc2ccccc2C(F)(F)F)sn(-c2cccc3[nH]ncc23)c1=O [Example 8] | < 1000 |  |
| CS(=O)(=O)N1CC[C@H](n2sc(Nc3c(Cl)ccc4ncccc34)c(C#N)c2=O)C1 [Example 22] | < 1000 |  |
| N#Cc1c(Nc2ccccc2C(F)(F)F)sn(-c2ccccc2)c1=O [Example 4] | < 1000 |  |
| N#Cc1c(Nc2ccccc2C(F)(F)F)sn([C@H]2CCNC2)c1=O [Example 5] | < 1000 |  |
| CS(=O)(=O)N1CC[C@@H](n2sc(Nc3c(Cl)ccc4ncccc34)c(C#N)c2=O)C1 [Example 30] | < 1000 |  |
| CS(=O)(=O)N1CCC(n2sc(Nc3ccccc3C(F)(F)F)c(C#N)c2=O)CC1 [Example 20] | < 1000 |  |
| N#Cc1c(Nc2ccccc2C(F)(F)F)sn([C@@H]2CCNC2)c1=O [Example 21] | < 1000 |  |
| N#Cc1c(Nc2ccccc2C(F)(F)F)sn(C2CCNCC2)c1=O [Example 19] | < 1000 |  |
| N#Cc1c(Nc2ccccc2C(F)(F)F)sn([C@@H]2CNCC23CC3)c1=O [Example 27] | < 1000 |  |
| CC(C)(C)OC(=O)n1ncc2cc(-n3sc(Nc4ccccc4C(F)(F)F)c(C#N)c3=O)ccc21 [Example 29] | < 1000 |  |
| N#Cc1c(Nc2ccccc2C(F)(F)F)sn(-c2cccc(-c3cnco3)c2)c1=O [Example 18] | < 1000 |  |
